What was measured:
Format in all cases: cell-based
MOLT-4 cells [1] = assay: MOLT-4 cell viability, CTG assay; conditions: Homo sapiens, MOLT-4, 48 h
Procedure, shortened: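 Cells grown in RPMI 1640 with 10% FBS at 37° C, 5% CO2, then exposed to compounds for 48 h (11-point 5-fold dilution, triplicates). ATP measured by CellTiter-Glo luminescence; IC50 from four-parameter fit versus control, mean of ≥2 independent experiments.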

Bcl-xL = molecular target: T1, Bcl-xL (Homo sapiens, UniProt Q07817); assay: HCT116 Bcl-xL degradation, capillary-based immunoassay (WES); conditions: for remaining activity at 0.01 µM / remaining activity at 0.1 µM: HCT-116, 24 h, % of untreated cells; for remaining activity at 0.01 µM: HCT116, 10 nM; for remaining activity at 0.1 µM: HCT116, 100 nM
T1 construct: Measured levels of Bcl-xL protein of HCT116 cells treated with the tested compounds; host or cells: HCT116
T1 sequence (Q07817 whole entry): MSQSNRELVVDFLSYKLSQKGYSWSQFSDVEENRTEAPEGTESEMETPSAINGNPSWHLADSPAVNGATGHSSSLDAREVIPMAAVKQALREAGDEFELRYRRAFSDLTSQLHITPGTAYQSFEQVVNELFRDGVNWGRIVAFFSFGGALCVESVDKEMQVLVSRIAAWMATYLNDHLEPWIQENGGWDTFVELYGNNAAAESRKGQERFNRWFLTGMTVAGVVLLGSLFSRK
Procedure, shortened: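 HCT116 cells treated 24 h with compound at 10/100 nM and/or 9-point dilution (quadruplicates), then lysed. Bcl-xL measured by capillary WES immunoassay, normalized to cofilin and expressed as % of untreated cells. DC50 from four-parameter curve fit.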

MOLT-4 cells [2] = assay: MOLT-4 cell viability, MTT assay; conditions: Homo sapiens, MOLT-4, 48 h
Description: The MTT colorimetric assay is based on the mitochondrial reduction of tetrazolium salt by living cells. The viable cell number is proportional to the production of formazan salts, which can be read spectrophotometrically at 540 nm. The CTG luminescent assay (CellTiter GLO, Promega) is based on a reagent which lyses cells and measures total adenosine triphosphate (ATP) content. The viable cell number is proportional to the production of ATP.
MOLT-4 cells were purchased from ATCC and cultivated in RPMI 1640 supplemented with 10% heat inactivated fetal bovine serum, penicillin (100 IU/mi), streptomycin (100 μg/ml) and L-glutamine (2 mM). Cells were cultured at 37° C. in a humidified atmosphere containing 5% […].
For MTT assay, cells were seeded in 96 microwell plates (150 μL per well) and exposed to the compounds for 48 h (3.16 fold serially diluted; 9 concentrations each, triplicates). At the end of incubation time, 15 μL of MTT solution (5 mg/ml) were added per well and the cells were incubated for another 4 h. Then, 100 μL of 10% Sodium Dodecyl Sulfate (SDS)/HCl 10 mM were added per well and the plate was incubated overnight, before measurement of optical density at 540 nm.
IC50, were calculated using standard four-parametric curve fitting. IC50 is defined as the compound concentration at which the MTT or CTG signal is reduced to 50% of that measured for the control. Results shown in Table 14 represent the mean of at least 2 independent experiments.

| Compound | IC50 (MOLT-4 cells [1]) | remaining activity at 0.01 µM (Bcl-xL) | remaining activity at 0.1 µM (Bcl-xL) | IC50 (MOLT-4 cells [2]) | DC50 (Bcl-xL; HCT116, 24 h, 9-point serial dilution) |
| --- | --- | --- | --- | --- | --- |
| Cc1c(Nc2nc3ccccc3s2)nnc2c1CCCN2c1ccc(-c2cnn(CC34CC5(C)CC(C)(C3)CC(OCCN(C)CCOCCOCCOCCNc3cccc6c3C(=O)N(C3CCC(=O)NC3=O)C6=O)(C5)C4)c2C)c(C(=O)O)n1 (stereo not drawn) [Example 11, 6-[3-(1,3-benzothiazol-2-ylamino)-4-methyl-6,7-dihydro-5H-pyrido[2,3-c]pyridazin-8-yl]-3-[1-[[3-[2-[2-[2-[2-[2-[[2-(2,6-dioxo-3-piperidyl)-1,3-dioxo-isoindolin-4-yl]amino]ethoxy]ethoxy]ethoxy]ethyl-methyl-amino]ethoxy]-5,7-dimethyl-1-adamantyl]methyl]-5-methyl-pyrazol-4-yl]pyridine-2-carboxylic acid] | 20.3 nM | 83% | 60% | 4.29 nM |  |
| Cc1c(Nc2nc3ccccc3s2)nnc2c1CCCN2c1ccc(-c2cnn(CC34CC5(C)CC(C)(C3)CC(OCCN(C)CCOCCOCCNc3cccc6c3C(=O)N(C3CCC(=O)NC3=O)C6=O)(C5)C4)c2C)c(C(=O)O)n1 (stereo not drawn) [Example 12, 6-[3-(1,3-benzothiazol-2-ylamino)-4-methyl-6,7-dihydro-5H-pyrido[2,3-c]pyridazin-8-yl]-3-[1-[[3-[2-[2-[2-[2-[[2-(2,6-dioxo-3-piperidyl)-1,3-dioxo-isoindolin-4-yl]amino]ethoxy]ethoxy]ethyl-methyl-amino]ethoxy]-5,7-dimethyl-1-adamantyl]methyl]-5-methyl-pyrazol-4-yl]pyridine-2-carboxylic acid] | 19.9 nM | 69% | 69% | 9.49 nM |  |
| Cc1c(Nc2nc3ccccc3s2)nnc2c1CCCN2c1ccc(-c2cnn(CC34CC5(C)CC(C)(C3)CC(OCCN(C)CCOCCOCCOCCOCCOCCNc3cccc6c3C(=O)N(C3CCC(=O)NC3=O)C6=O)(C5)C4)c2C)c(C(=O)O)n1 (stereo not drawn) [Example 13, 6-[3-(1,3-benzothiazol-2-ylamino)-4-methyl-6,7-dihydro-5H-pyrido[2,3-c]pyridazin-8-yl]-3-[1-[[3-[2-[2-[2-[2-[2-[2-[2-[[2-(2,6-dioxo-3-piperidyl)-1,3-dioxo-isoindolin-4-yl]amino]ethoxy]ethoxy]ethoxy]ethoxy]ethoxy]ethyl-methyl-amino]ethoxy]-5,7-dimethyl-1-adamantyl]methyl]-5-methyl-pyrazol-4-yl]pyridine-2-carboxylic acid] | 33.9 nM | 79% | 57% | 13.5 nM |  |
| Cc1c(Nc2nc3ccccc3s2)nnc2c1CCCN2c1ccc(-c2cnn(CC34CC5(C)CC(C)(C3)CC(OCCN(C)CCCCCCOc3ccc6c(c3)C(=O)N(C3CCC(=O)NC3=O)C6=O)(C5)C4)c2C)c(C(=O)O)n1 (stereo not drawn) [Example 14, 6-[3-(1,3-benzothiazol-2-ylamino)-4-methyl-6,7-dihydro-5H-pyrido[2,3-c]pyridazin-8-yl]-3-[1-[[3-[2-[6-[2-(2,6-dioxo-3-piperidyl)-1,3-dioxo-isoindolin-5-yl]oxyhexyl-methyl-amino]ethoxy]-5,7-dimethyl-1-adamantyl]methyl]-5-methyl-pyrazol-4-yl]pyridine-2-carboxylic acid] | 3.51 nM | 81% | 86% | 1.15 nM |  |
| Cc1cc(N(CCCCCn2cc(CCCCCCCNC(=O)COc3cccc4c3C(=O)N(C3CCC(=O)NC3=O)C4=O)nn2)c2ccc(-c3cnn(CC45CC6(C)CC(C)(C4)CC(OCCN(C)C)(C6)C5)c3C)c(C(=O)O)n2)nnc1Nc1nc2ccccc2s1 (stereo not drawn) [Example 64, 6-[[6-(1,3-benzothiazol-2-ylamino)-5-methyl-pyridazin-3-yl]-[5-[4-[7-[[2-[2-(2,6-dioxo-3-piperidyl)-1,3-dioxo-isoindolin-4-yl]oxyacetyl]amino]heptyl]triazol-1-yl]pentyl]amino]-3-[1-[[3-[2-(dimethylamino)ethoxy]-5,7-dimethyl-1-adamantyl]methyl]-5-methyl-pyrazol-4-yl]pyridine-2-carboxylic acid] | 118 nM | 59% | 40% | 92.8 nM | 46.2 nM |

The remaining lines, values ahead:

| IC50 (MOLT-4 cells [1]) | remaining activity at 0.01 µM (Bcl-xL) | remaining activity at 0.1 µM (Bcl-xL) | IC50 (MOLT-4 cells [2]) | DC50 (Bcl-xL; HCT116, 24 h, 9-point serial dilution) | Compound |
| --- | --- | --- | --- | --- | --- |
| 23.6 nM | 73% | 35% | 11.5 nM |  | Cc1ncsc1-c1ccc(CNC(=O)[C@@H]2C[C@@H](O)CN2C(=O)[C@@H](NC(=O)CCC(=O)N2CCN(CC#Cc3ccc(OCCCc4sc(N5CCCc6c5nnc(Nc5nc7ccccc7s5)c6C)nc4C(=O)O)c(F)c3)CC2)C(C)(C)C)cc1 [Example 21, 2-[3-(1,3-benzothiazol-2-ylamino)-4-methyl-6,7-dihydro-5H-pyrido[2,3-c]pyridazin-8-yl]-5-[3-[2-fluoro-4-[3-[4-[4-[[(1S)-1-[(2S,4R)-4-hydroxy-2-[[4-(4-methylthiazol-5-yl)phenyl]methylcarbamoyl]pyrrolidine-1-carbonyl]-2,2-dimethyl-propyl]amino]-4-oxo-butanoyl]piperazin-1-yl]prop-1-ynyl]phenoxy]propyl]thiazole-4-carboxylic acid] |
| 1630 nM | 64% | 67% | 875 nM |  | CNCC#Cc1ccc(OCCCc2sc(N(CCCc3cn(CCOCCOCCOCCOCCOCCC(=O)N[C@H](C(=O)N4C[C@H](O)C[C@H]4C(=O)NCc4ccc(-c5scnc5C)cc4)C(C)(C)C)nn3)c3cc(C)c(Nc4nc5ccccc5s4)nn3)nc2C(=O)O)c(F)c1 [Example 29, 2-[[6-(1,3-benzothiazol-2-ylamino)-5-methyl-pyridazin-3-yl]-[3-[1-[2-[2-[2-[2-[2-[3-[[(1S)-1-[(2S,4R)-4-hydroxy-2-[[4-(4-methylthiazol-5-yl)phenyl]methylcarbamoyl]pyrrolidine-1-carbonyl]-2,2-dimethyl-propyl]amino]-3-oxo-propoxy]ethoxy]ethoxy]ethoxy]ethoxy]ethyl]triazol-4-yl]propyl]amino]-5-[3-[2-fluoro-4-[3-(methylamino)prop-1-ynyl]phenoxy]propyl]thiazole-4-carboxylic acid] |
| 477 nM | 118% | 73% | 133 nM |  | CNCC#Cc1ccc(OCCCc2sc(N(CCCc3cn(CCCCCCCCNC(=O)COc4cccc5c4C(=O)N(C4CCC(=O)NC4=O)C5=O)nn3)c3cc(C)c(Nc4nc5ccccc5s4)nn3)nc2C(=O)O)c(F)c1 (stereo not drawn) [Example 30, 2-[[6-(1,3-benzothiazol-2-ylamino)-5-methyl-pyridazin-3-yl]-[3-[1-[8-[[2-[2-(2,6-dioxo-3-piperidyl)-1,3-dioxo-isoindolin-4-yl]oxyacetyl]amino]octyl]triazol-4-yl]propyl]amino]-5-[3-[2-fluoro-4-[3-(methylamino)prop-1-ynyl]phenoxy]propyl]thiazole-4-carboxylic acid] |

Source: US20240376094A2, “SELECTIVE BCL-XL PROTAC COMPOUNDS AND METHODS OF USE” (Les Laboratoires Servier, priority 2021, published 2024)
